This assay has as its target T1, human β2 adrenergic receptor (Homo sapiens, UniProt P07550).
T1 construct: expressed in transfected cells; membranes prepared from the cells
Kind of assay: Radioligand binding assay on human β1 and β2 adrenergic receptors ([3H]dihydroalprenolol displacement). Particulars: binding at β2 versus β1 adrenergic receptor; HEK-293 membranes. As for the experimental part: HEK-293 derived cell lines stably expressing cloned human β1 or β2 adrenergic receptors, respectively, were grown to near confluency in DMEM with 10% dialyzed FBS in the presence of 500 μg/mL Geneticin. The cell monolayer was lifted with Versene 1:5,000 (0.2 g/L EDTA in PBS) using a cell scraper. Cells were pelleted by centrifugation at 1,000 rpm, and cell pellets were either stored frozen at −80° C. or membranes were prepared immediately. […] Protein concentration of the membrane suspension was determined by the method of Bradford (Bradford M M., Analytical Biochemistry, 1976, 72, 248-54). […]
Binding assays were performed in 96-well microtiter plates in a total assay volume of 100 μL with 5 μg membrane protein for membranes containing the human β2 adrenergic receptor, or 2.5 μg membrane protein for membranes containing the human 01 adrenergic receptor in assay buffer (75 mM Tris/HCl pH 7.4 @ 25° C., 12.5 mM MgCl2, 1 mM EDTA, 0.2% BSA). […] Non-specific binding was determined in the presence of 10 μM unlabeled alprenolol. […] Filter plates were washed three times with filtration buffer (75 mM Tris/HCl pH 7.4 @4° C., 12.5 mM MgCl2, 1 mM EDTA) to remove unbound radioactivity. […] Binding data were analyzed by nonlinear regression analysis with the GraphPad Prism Software package (GraphPad Software, Inc., San Diego, Calif.) using the 3-parameter model for one-site competition. […]

Consider 1 compound from patent US7662815B2, “Diaryl ether β2 adrenergic receptor agonists” (Theravance, Inc., priority 2004, dated 2010).

T1 sequence (P07550 whole entry): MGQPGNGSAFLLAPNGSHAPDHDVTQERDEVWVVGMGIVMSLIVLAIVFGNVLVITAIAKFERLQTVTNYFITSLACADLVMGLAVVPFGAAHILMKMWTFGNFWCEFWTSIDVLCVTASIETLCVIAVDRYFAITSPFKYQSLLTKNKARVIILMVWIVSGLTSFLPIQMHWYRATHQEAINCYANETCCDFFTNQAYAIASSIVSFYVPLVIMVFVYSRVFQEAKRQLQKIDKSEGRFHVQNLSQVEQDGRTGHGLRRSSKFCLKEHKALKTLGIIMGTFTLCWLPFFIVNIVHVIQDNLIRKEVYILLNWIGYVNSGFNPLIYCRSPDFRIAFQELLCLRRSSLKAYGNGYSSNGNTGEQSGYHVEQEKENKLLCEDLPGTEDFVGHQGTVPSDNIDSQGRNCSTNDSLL

On to `COc1ccc(Oc2ccc(CCNC[C@H](O)c3ccc(O)c4[nH]c(=O)ccc34)cc2)cc1-c1ccccc1` [Example 1, 8-Hydroxy-5-((R)-1-hydroxy-2-{2-[4-(6-methoxybiphenyl-3-yloxy)phenyl]ethylamino}ethyl)-1H-quinolin-2-one], for which the “receptor subtype selectivity, ratio Ki(β1)/Ki(β2)” value is given as “about 18”.
